Reference: ChEMBL document CHEMBL1130727, “Benzothiopyran-4-one based reversible inhibitors of the human cytomegalovirus (HCMV) protease” (Bioorg Med Chem Lett, 1998)

Biological target: T1, Capsid scaffolding protein (Human cytomegalovirus (strain AD169) (HHV-5) (Human herpesvirus 5), UniProt P16753)
T1 sequence (P16753 whole entry): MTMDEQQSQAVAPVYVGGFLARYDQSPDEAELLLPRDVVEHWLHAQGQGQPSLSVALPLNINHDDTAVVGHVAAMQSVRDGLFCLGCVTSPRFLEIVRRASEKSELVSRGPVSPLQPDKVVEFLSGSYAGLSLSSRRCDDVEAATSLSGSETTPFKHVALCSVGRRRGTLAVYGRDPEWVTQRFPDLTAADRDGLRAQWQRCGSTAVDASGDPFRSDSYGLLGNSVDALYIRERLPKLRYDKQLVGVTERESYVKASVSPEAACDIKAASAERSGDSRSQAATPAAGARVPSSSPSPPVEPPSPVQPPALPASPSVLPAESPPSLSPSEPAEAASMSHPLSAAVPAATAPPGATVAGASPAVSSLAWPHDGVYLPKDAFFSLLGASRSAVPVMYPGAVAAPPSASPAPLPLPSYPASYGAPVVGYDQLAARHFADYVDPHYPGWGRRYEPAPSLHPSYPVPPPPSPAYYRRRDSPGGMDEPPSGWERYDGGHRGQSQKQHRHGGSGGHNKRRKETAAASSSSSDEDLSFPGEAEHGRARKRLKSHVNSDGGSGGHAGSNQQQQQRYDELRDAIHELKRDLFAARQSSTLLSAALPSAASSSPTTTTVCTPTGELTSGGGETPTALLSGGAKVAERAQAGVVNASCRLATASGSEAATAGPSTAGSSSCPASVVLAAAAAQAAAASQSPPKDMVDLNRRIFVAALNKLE
Assay: Inhibitory activity against human cytomegalovirus (HCMV) protease was evaluated
Set-up: species or system Human betaherpesvirus 5

Compound | IC50
Cc1cccc2c1C(=O)C=C(c1ccc([N+](=O)[O-])cc1)S2(=O)=O | 100 nM
Cc1cccc2c1S(=O)(=O)C(c1ccc([N+](=O)[O-])cc1)=CC2=O | 110 nM
O=C1C=C(c2ccc[n+]([O-])c2)S(=O)(=O)c2ccccc21 | 600 nM
CCOC(=O)c1ccc2c(c1)C(=O)C=C(c1ccc([N+](=O)[O-])cc1)S2(=O)=O | 180 nM
O=C1C=C(c2cccs2)S(=O)(=O)c2ccccc21 | 460 nM
O=C1C=C(c2ccncc2)S(=O)(=O)c2ccccc21 | 100 nM
O=C1C=C(c2cccnc2)S(=O)(=O)c2ccccc21 | 200 nM
CS(=O)(=O)c1ccc(C2=CC(=O)c3ccccc3S2(=O)=O)cc1 | 100 nM
O=c1cc(-c2ccccc2)[s+]([O-])c2ccccc12 (stereo not given) | 10000 nM
O=C1C=C(c2cc[n+]([O-])cc2)S(=O)(=O)c2ccccc21 | 600 nM
O=C1C=C(c2ccsc2)S(=O)(=O)c2ccccc21 | > 34000 nM
CS(=O)(=O)c1ccc(-c2cc(=O)c3ccccc3s2)cc1 | > 34000 nM
O=c1cc(-c2cccnc2)sc2ccccc12 | > 34000 nM
O=C1C=C(c2ccccc2)S(=O)(=O)c2ccccc21 | 1500 nM
CCCCCCCC1=CC(=O)c2ccccc2S1(=O)=O | 1400 nM
O=C1C=C(c2ccc([N+](=O)[O-])cc2)S(=O)(=O)c2ccccc21 | 60 nM
CC(C)c1cccc2c1S(=O)(=O)C(c1ccc([N+](=O)[O-])cc1)=CC2=O | 180 nM
CC(C)(C)C1=CC(=O)c2ccccc2S1(=O)=O | > 34000 nM
O=c1cc(-c2ccccc2)sc2ccccc12 | > 34000 nM
O=C1C=C(c2ccc(-c3ccccc3)cc2)S(=O)(=O)c2ccccc21 | 60 nM
